Measurements from US20220056018A1, “SREBP INHIBITORS COMPRISING A THIOPHENE CENTRAL RING” (Capulus Therapeutics, LLC, priority 2019, published 2022).

How the values were obtained:
SREBP = assay: Reporter Screening Assay (SRE-luciferase reporter, HepG2); type: cell-based; settings: Homo sapiens; SRE-luciferase reporter HepG2 cells, 24 hours, 0.01 uM to 10 uM; read-out: I: Reporter Screening Assay (Ave EC50 (nM))
Description: Reporter Screening Assay: This assay was used to evaluate the effect on transcriptional activity SREBP of selected compounds using an SRE-luciferase reporter construct. On day 1, 10,000 cells were seeded in a 96 well (white) plate as per the plate map in Growth media without antibiotics. Cells were incubated at 37° C. for 8 hours. After 8 hours, cells were washed with DPBS for complete removal of FBS. DPBS was completely removed and Growth media was replaced with phenol free treatment medium (90 μl) with different FBS concentrations. The cells were then incubated at 37° C. for 24 hours with varying doses (0.01 uM to 10 uM) of compounds. Then a Luciferase assay was performed.
Reagents for performing Luciferase assay were stored at −20° C. To a tube of lyophilized assay substrate was added 1 mL Substrate Solvent and mixed well. The Substrate tube after reconstitution was covered with aluminum foil so as to keep it protected from light. The assay buffer was thawed to room temperature. To 20 mL Assay Buffer was added 200 μL of reconstituted 100× Substrate and mixed well. The reconstituted substrate as well as the assay solution (buffer+substrate) was protected from light throughout the procedure by keeping it covered with aluminum foil. Using a multi-channel pipette, 100 μL Assay Solution (buffer+substrate) was added directly to each sample well in Plate 1, which was incubated for 30 min (plate was covered with aluminum foil). After 30 min incubation, the plate was read for total luminescence. Each well was read for 2 seconds in a plate luminometer. (Microplate reader Envision Microplate reader from Perkin Elmer). Precaution was taken to incubate plate exactly for 30 min prior to reading on the plate reader.
SREBPv1 Reporter cell line: HepG2—#32251. Growth Medium: MEM (Corning 10-010), 10% FBS, 1% GlutaMax (Invitrogen Catalog #35050061), […] (Invitrogen Catalog # A1113803) and 1% Penicillin-Streptomycin (Pen-Strep). Treatment Media: Phenol-free MEM (Invitrogen Catalog #51200-038) and 1% GlutaMax (Invitrogen Catalog #35050061). Luciferase Assay: LightSwitch Luciferase Assay Kit (Catalog #32032). LDH assay: Pierce LDH Cytotoxicity Assay Kit (Catalog # SD249616).

[1] = Stability in human liver microsomes; type: in vitro ADME; settings: 37° C., NADPH
Description: Half-Life Human Microsomes:
(§1) Compounds were evaluated for stability in human liver microsomes. A 10 mM stock solution of the compound being evaluated was prepared in DMSO and diluted with water:acetonitrile (1:1) to a concentration of 1 mM. A working concentration of 100 μM was prepared by further dilution with water:acetonitrile (1:1). To make the preincubation mixture, 2.5 μL of the diluted compound was combined with 75 μL of human liver microsomes at 3.33 mg/mL, and 85 μL of 100 mM potassium phosphate buffer, and this mixture was pre-incubated for 10 min at 37° C. To make the 60 minute mixture without cofactor, 32.5 μL of the preincubation mixture was combined with 17.5 μL of 100 mM potassium phosphate buffer and incubated for 60 min at 37° C. To make the 0 min sample with cofactor (NADPH), 16.25 μL of the preincubation mixture was combined with 200 μL of acetonitrile containing internal standard and 8.75 μL of cofactor (NADPH). To make the incubation mixture, 62 μL of cofactor (2.85 mM) was combined with the remaining incubation mixture, and incubated for 60 min at 37° C. To prepare the sample mixture to be evaluated, 25 μL incubation mixture was combined with 200 μL of acetonitrile containing internal standard and vortexed for 5 min at 1200 rpm, then centrifuged for 10 min at 4000 rpm. The supernatant was diluted 2 fold with water and injected on LC-MS/MS. The sample mixture was evaluated by LC-MS/MS using 10 mM ammonium acetate with 0.100 FA as the aqueous mobile phase, and methanol as the organic mobile phase.

[2] = Stability in mouse liver microsomes; type: in vitro ADME
Description: as §1
Half-Life Mouse Microsomes:
Compounds were evaluated in mouse liver microsomes following a similar procedure as described above for human liver microsomes. A similar procedure could be used to evaluate compounds in rat liver microsomes.

| Compound | EC50 (SREBP) | percent of compound remaining after 60 min in human liver microsomes [1] | percent parent remaining after 60 min in liver microsomes [2] |
| --- | --- | --- | --- |
| CC(C)(CO)c1cc(-c2csc(-c3ccc(NS(=O)(=O)C(F)(F)F)cc3Cl)c2)ccn1 [Compound I-8940, N-(3-chloro-4-(4-(2-(1-hydroxy-2-methylpropan-2-yl)pyridin-4-yl)thiophen-2-yl)phenyl)-1,1,1-trifluoromethanesulfonamide] | < 249 nM | + (0-30 = +) | ++ (30.1-60 = ++) |
| CC(C)(C)c1cc(-c2csc(-c3ccc(NC(=O)NC4CCC(O)CC4)cc3Cl)c2)ccn1 (stereo not drawn) [Compound I-8742, 1-(4-(4-(2-(tert-butyl)pyridin-4-yl)thiophen-2-yl)-3-chlorophenyl)-3-(4-hydroxycyclohexyl)urea] | > 500 nM | +++ (>60.1 = +++) | +++ (>60.1 = +++) |
| CC(C)(C#N)c1cc(-c2csc(-c3ccc(NS(C)(=O)=O)cc3Cl)c2)ccn1 [Compound I-9039, N-(3-chloro-4-(4-(2-(2-cyanopropan-2-yl)pyridin-4-yl)thiophen-2-yl)phenyl)methanesulfonamide] | > 500 nM | +++ (>60.1 = +++) | +++ (>60.1 = +++) |
| CC(C)(C)c1cc(-c2csc(-c3ccc(NC(=O)OCCN4CCCC4)cc3Cl)c2)ccn1 [Compound I-8762, 2-(pyrrolidin-1-yl)ethyl (4-(4-(2-(tert-butyl)pyridin-4-yl)thiophen-2-yl)-3-chlorophenyl)carbamate] | > 500 nM | +++ (>60.1 = +++) | + (0-30 = +) |
| CC(C)NC(=O)Nc1ccc(-c2cc(-c3ccnc(C(C)(C)C)c3)cs2)c(Cl)c1 [Compound I-8731, 1-(4-(4-(2-(tert-butyl)pyridin-4-yl)thiophen-2-yl)-3-chlorophenyl)-3-isopropylurea] | < 249 nM | ++ (30.1-60 = ++) | ++ (30.1-60 = ++) |
| CC(C)(C)c1cc(-c2csc(-c3ccc(S(=O)(=O)CC4CCCC4)cc3)c2)ccn1 [Compound I-8729, 2-(tert-butyl)-4-(5-(4-((cyclopentylmethyl)sulfonyl)phenyl)thiophen-3-yl)pyridine] | > 500 nM | + (0-30 = +) | + (0-30 = +) |
| CC(C)(CO)c1cc(-c2csc(-c3ccc(NC(=O)N4CCC(O)CC4)cc3Cl)c2)ccn1 [Compound I-8926, N-(3-chloro-4-(4-(2-(1-hydroxy-2-methylpropan-2-yl)pyridin-4-yl)thiophen-2-yl)phenyl)-4-hydroxypiperidine-1-carboxamide] | < 249 nM | ++ (30.1-60 = ++) | +++ (>60.1 = +++) |
| CC(C)(C)c1cc(-c2csc(-c3ccc(NC(=O)NCCN4CCCC4)cc3Cl)c2)ccn1 [Compound I-8761, 1-(4-(4-(2-(tert-butyl)pyridin-4-yl)thiophen-2-yl)-3-chlorophenyl)-3-(2-(pyrrolidin-1-yl)ethyl)urea] | > 500 nM | +++ (>60.1 = +++) | +++ (>60.1 = +++) |
| CC(C)NS(=O)(=O)Nc1ccc(-c2cc(-c3ccnc(C(C)(C)CO)c3)cs2)c(Cl)c1 [Compound I-8941] | < 249 nM | ++ (30.1-60 = ++) | ++ (30.1-60 = ++) |
| CCOC(=O)Nc1ccc(-c2cc(-c3ccnc(C(C)(C)C)c3)cs2)c(Cl)c1 [Compound I-8735, Ethyl (4-(4-(2-(tert-butyl)pyridin-4-yl)thiophen-2-yl)-3-chlorophenyl)carbamate] | 250 to 500 nM | +++ (>60.1 = +++) | +++ (>60.1 = +++) |
| CC(C)(C)c1cc(-c2csc(-c3ccc(NC(=O)NC4CCNCC4)cc3Cl)c2)ccn1 [Compound I-8755, 1-(4-(4-(2-(tert-butyl)pyridin-4-yl)thiophen-2-yl)-3-chlorophenyl)-3-(piperidin-4-yl)urea] | > 500 nM | +++ (>60.1 = +++) | +++ (>60.1 = +++) |
| CC(C)(CO)c1cc(-c2csc(-c3ccc(N4CCOC4=O)cc3Cl)c2)ccn1 [Compound I-8939, 3-(3-chloro-4-(4-(2-(1-hydroxy-2-methylpropan-2-yl)pyridin-4-yl)thiophen-2-yl)phenyl)oxazolidin-2-one] | 250 to 500 nM | ++ (30.1-60 = ++) | +++ (>60.1 = +++) |
| CC(C)OC(=O)Nc1ccc(-c2cc(-c3ccnc(OC4CC4)c3)cs2)c(Cl)c1 [Compound I-9060, isopropyl (3-chloro-4-(4-(2-cyclopropoxypyridin-4-yl)thiophen-2-yl)phenyl)carbamate] | < 249 nM | +++ (>60.1 = +++) | +++ (>60.1 = +++) |
| CC(C)S(=O)(=O)c1ccc(-c2cc(-c3ccnc(C(C)(C)C)c3)cs2)cc1 [Compound I-8728, 2-(tert-butyl)-4-(5-(4-(isopropylsulfonyl)phenyl)thiophen-3-yl)pyridine] | 250 to 500 nM | ++ (30.1-60 = ++) | +++ (>60.1 = +++) |
| CC(C)(O)C(O)c1cc(-c2csc(-c3ccc(NS(C)(=O)=O)cc3Cl)c2)ccn1 (stereo not drawn) [Compound I-9075, N-(3-chloro-4-(4-(2-(1,2-dihydroxy-2-methylpropyl)pyridin-4-yl)thiophen-2-yl)phenyl)methanesulfonamide] | > 500 nM | +++ (>60.1 = +++) | +++ (>60.1 = +++) |
| CC(C)OC(=O)Nc1ccc(-c2cc(-c3ccnc(C(C)(C)C)c3)cs2)c(Cl)c1 [Compound I-8741, Isopropyl (4-(4-(2-(tert-butyl)pyridin-4-yl)thiophen-2-yl)-3-chlorophenyl)carbamate] | < 249 nM | +++ (>60.1 = +++) | +++ (>60.1 = +++) |
| CS(=O)(=O)Nc1ccc(-c2cc(-c3ccnc(O[C@@H]4COC[C@@H]4O)c3)cs2)c(Cl)c1 [Compound I-9108, N-(3-chloro-4-(4-(2-(((3R,4S)-4-hydroxytetrahydrofuran-3-yl)oxy)pyridin-4-yl)thiophen-2-yl)phenyl)methanesulfonamide] | > 500 nM | +++ (>60.1 = +++) | +++ (>60.1 = +++) |
| CC(C)OC(=O)Nc1ccc(-c2cc(-c3ccnc4c3OCCO4)cs2)c(Cl)c1 [Compound I-9062, isopropyl (3-chloro-4-(4-(2,3-dihydro-[1,4]dioxino[2,3-b]pyridin-8-yl)thiophen-2-yl)phenyl)carbamate] | < 249 nM | +++ (>60.1 = +++) | +++ (>60.1 = +++) |
